Data published in ChEMBL document CHEMBL6092158, “Green synthesis of neuroprotective spirocyclic chalcone derivatives and their role in protecting against traumatic optic nerve injury” (Eur J Med Chem, 2024).
The source made the active and inactive calls. The calls are words filed in the database; no cut-off is given here.

Assays:
R28 [1] = assay: Cytoprotective activity against glutamate-induced cytotoxicity in rat R28 cells assessed as increase in cell viability at 10 uM incubated for 24 hrs in presence of glutamate by MTT assay; format: functional, cell-based
R28 [2] = assay: Cytoprotective activity against hydrogen peroxide-induced cytotoxicity in rat R28 cells assessed as increase in cell viability at 10 uM preincubated for 24 hrs followed by incubation with H2O2 for 24 hrs by MTT assay; format: functional, cell-based

Compound	Activity (R28 [1])	Activity (R28 [2])
CN1C[C@H](c2ccc(O)c(O)c2)[C@@H](C(=O)c2ccc([N+](=O)[O-])cc2)[C@]12C(=O)Nc1ccccc12	inactive	inactive
CN1C[C@H](c2ccc(O)c(O)c2)[C@@H](C(=O)c2cccc(C(F)(F)F)c2)[C@]12C(=O)Nc1ccccc12	inactive	inactive
CCCc1ccc(C(=O)[C@@H]2[C@@H](c3ccc(O)c(O)c3)CN(C)[C@@]23C(=O)Nc2ccccc23)cc1	Active	Active
CN1C[C@H](c2ccc(O)c(O)c2)[C@@H](C(=O)c2ccc(Cl)cc2Cl)[C@]12C(=O)Nc1ccccc12	Active	Active
CN1C[C@H](c2ccc(O)c(O)c2)[C@@H](C(=O)c2ccccc2C(F)(F)F)[C@]12C(=O)Nc1ccccc12	inactive	inactive
CN1C[C@H](c2ccc(O)c(O)c2)[C@@H](C(=O)c2cccc(O)c2)[C@]12C(=O)Nc1ccccc12	Active	Active
CN1C[C@H](c2ccc(O)c(O)c2)[C@@H](C(=O)c2ccc(S(C)(=O)=O)cc2)[C@]12C(=O)Nc1ccccc12	inactive	inactive
CN1C[C@H](c2ccc(O)c(O)c2)[C@@H](C(=O)c2ccc(Br)cc2)[C@]12C(=O)Nc1ccccc12	Active	Active
COc1cc(C(=O)[C@@H]2[C@@H](c3ccc(O)c(O)c3)CN(C)[C@@]23C(=O)Nc2ccccc23)ccc1O	Active	Active
CN1C[C@H](c2ccc(O)c(O)c2)[C@@H](C(=O)c2ccc(Cl)cc2)[C@]12C(=O)Nc1ccccc12	Active	Active
COc1ccc(C(=O)[C@@H]2[C@@H](c3ccc(O)c(O)c3)CN(C)[C@@]23C(=O)Nc2ccccc23)cc1OC	Active	Active
